Source: patent US10736883B2, “Triazole furan compounds as agonists of the APJ receptor” (AMGEN INC., priority 2016, dated 2020)

What was measured:
[1] = tested on: MI-induced heart failure rats; assay: Cardiovascular effects of Example 56.0 and captopril/losartan on MI-induced heart failure rats; format: in vivo, rat
Experimental: Cardiovascular Effects of Example 56.0 and Captopril/Losartan on MI-Induced Heart Failure Rats
Male Lewis rats at 2-3 months of age were used for the study. MI was induced by ligation of the LAD. Echocardiography (Echo) was performed at one-week post-MI on rats for verification of infarct size and animal enrollment Animals with ejection fractions more than 40% or no visible infarct in myocardium were excluded from the study. All eligible MI rats were randomly divided into 3 groups: 1) those treated with vehicle; 2) those treated with losartan (0.5 g/L in drink water); and 3) those treated with captopril (0.5 g/L in drink water). Treatments were initiated approximately five weeks post-MI and animals were continuously treated with losartan and captopril in drinking water up to 15 days prior to being assigned into each subgroup. These subgroup groups included the following: 1) cohort treated with vehicle; 2) cohort treated with Example 56.0 at various doses; 3) cohort treated only with losartan; 4) cohort treated with losartan and Example 56.0 at various doses; 5) cohort treated only with captopril; and 6) cohort treated with captopril and Example 56.0 at various doses. A Millar PV catheter was inserted into the right common carotid artery and then advanced to the left ventricle (LV) for cardiac hemodynamic assessment and the peripheral arterial pressure was also monitored by a pressure transducer via a femoral artery access in all rats. Following hemodynamic stabilization, baseline steady-state data was acquired Animals in any Example 56 treated group received intravenous infusion of Example 56.0 in a dose-escalated fashion during cardiac hemodynamic assessment. Blood was drawn for actual PK exposure to derive a PK/PD profile.

[2] = target: T1, APJ receptor (Homo sapiens (Human), UniProt P35414); assay: [35S]GTPγS binding assay on membranes from CHO cells stably expressing human APJ receptor; format: biochemical; conditions: membranes of CHO cells stably expressing human APJ receptor, means of several independent experiments, read-out: Activity hAPJ SPA EC50 IP
T1 sequence (P35414 whole entry): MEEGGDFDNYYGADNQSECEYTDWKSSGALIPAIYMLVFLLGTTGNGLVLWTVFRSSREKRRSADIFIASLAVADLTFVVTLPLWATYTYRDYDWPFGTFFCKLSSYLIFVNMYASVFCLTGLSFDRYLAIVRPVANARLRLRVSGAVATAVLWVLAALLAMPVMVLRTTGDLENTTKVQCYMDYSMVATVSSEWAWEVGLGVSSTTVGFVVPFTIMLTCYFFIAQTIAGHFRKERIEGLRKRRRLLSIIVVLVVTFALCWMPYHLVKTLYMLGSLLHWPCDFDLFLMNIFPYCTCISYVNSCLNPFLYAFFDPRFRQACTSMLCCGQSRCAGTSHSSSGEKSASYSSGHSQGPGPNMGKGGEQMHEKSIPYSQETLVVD
Summary of the method: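 Membranes from CHO cells stably expressing human APJ were incubated with 0.2 nM [35S]GTPγS and ligands for 90 min at RT in 20 mM HEPES pH 7.5, 5 mM MgCl2, 200 mM NaCl, 3 μM GDP, 0.1% BSA with WGA PS beads. Nonspecific binding was set with 100 μM GTPγS. EC50 came from non-linear regression.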

[3] = tested on: isolated rat heart; assay: Isolated rat heart assay with APJ agonist in the presence or absence of AT1R blocker losartan
Source text: Evidence for Blockade of AT1R Signaling Enhances the APJ Receptor Signaling Using Ex-Vivo (Isolated Rat Heart Assay) and In Vivo (Myocardial Infraction (MI)-Induced Heart Failure Model)
Naive Sprague Dawley® SD rats were anaesthetized and hearts were excised followed by cannulation in the Langendorff apparatus via aorta. The heart was perfused retrograde with modified oxygenated Krebs-Henseleit buffer. The pressure of the solution causes the aortic valve to shut and the perfusate was then forced into the ostium and the coronary vessels. This allowed the heart to beat for several hours. A balloon was inserted into the left ventricle to measure dp/dtmax as an index of cardiac contractility. The APJ agonist (Example 56.0) was perfused in the presence or absence of AT1R blocker losartan.

[4] = tested on: isolated perfused rat hearts; assay: Ex vivo isolated perfused rat heart (Langendorff) assay, load independent inotropic/lusitropic effects; conditions: percent change over vehicle; for Isolated Heart Assay dP/dtmax (%): contractility; for Isolated Heart Assay dP/dtmin (%): relaxation
Source text: Evidence for Load Independent Inotropic Effects with APJ Agonists Using Ex Vivo Assay (Isolated Perfused Rat Hearts)
Naive Sprague Dawley® SD rats (Harlan laboratories (Livermore, Calif. USA)) were anaesthetized and hearts were excised followed by cannulation in the Langendorff apparatus (Harvard apparatus, Holliston, Mass. USA) via aorta. The heart was perfused retrograde with modified oxygenated Krebs-Henseleit buffer (Skrzypiec-Spring M et al., (2007) J. Pharmacol Toxicol Methods 55: 113-126). The pressure of the solution causes the aortic valve to shut and the perfusate is then forced into the ostium and the coronary vessels. This allows the heart to beat for several hours. A balloon was inserted into the left ventricle (LV) to measure dP/dtmax (derivative of left ventricular pressure) as an index of cardiac contractility. The APJ agonist was perfused constantly in a dose dependent manner into the heart to examine cardiac contractility.
Example 210.0 was infused at different concentrations and load independent contractility was measured by index of LV dP/dtmax and the results are expressed as a percent change over vehicle. […] Example 210.0 was infused at different concentrations and load independent lusitropic effect (relaxation) was measured by index of LV dP/dtmin where results are expressed as percent change over vehicle. […] Example 51.0 was infused at different concentrations and load independent contractility was measured by index of LV dP/dtmax and the results are expressed as a percent change over vehicle. […] Example 51.0 was infused at different concentrations and load independent lusitropic effect (relaxation) was measured by index of LV dP/dtmin where results are expressed as percent change over vehicle.

[5] = tested on: heart failure rat model; assay: In vivo cardiac contractility in heart failure (MI) rat model; conditions: heart failure rats (LAD ligation), acute administration for 30 min
Experimental: Evidence for Improvement in Cardiac Contractility In Vivo in Heart Failure Rat Model
Based on the ex vivo findings in isolated heart assay, APJ agonists were dosed in vivo to investigate the translation of cardiac contractility in in vivo settings. Male Lewis rats (Charles River, USA) at 2-3 months of age were used for the study. Heart failure was induced by permanent ligation of the left descending coronary artery which results in injury to the heart with an ejection fraction of <35%. APJ agonists were administered dose dependently acutely for a period of 30 min. Administration of example compounds lead to an increase in cardiac contractility as measured by dP/dtmax (derivative of left ventricular pressure) (Table 27).

[6] = tested on: ex vivo naive Sprague Dawley rat hearts; assay: Langendorff isolated perfused rat heart (ex vivo); conditions: Langendorff apparatus; for left ventricular dP/dtmax (cardiac contractility) / left ventricular dP/dtmin (cardiac relaxation): isolated perfused rat hearts, compared with vehicle / control (DMSO)
Source text: FIG. 1A is a graph of left ventricular dP/dtmax as a function of concentration of Example 210.0 compared with vehicle in ex vivo naive Sprague Dawley rat hearts obtained using the Langendorff apparatus.
FIG. 1B is a graph of left ventricular dP/dtmin as a function of concentration of Example 210.0 compared with vehicle in ex vivo naive Sprague Dawley rat hearts obtained using the Langendorff apparatus.
FIG. 2A is a graph of left ventricular dP/dtmax as a function of concentration of Example 51.0 compared with vehicle in ex vivo naive Sprague Dawley rat hearts obtained using the Langendorff apparatus.
FIG. 2B is a graph of left ventricular dP/dtmin as a function of concentration of Example 51.0 compared with vehicle in ex vivo naive Sprague Dawley rat hearts obtained using the Langendorff apparatus.

[7] = target: T1, APJ receptor; conditions: apelin-36, apelin-17 and apelin-13 compared; cited from earlier work
[8] = Example 56.0 alone over vehicle, intravenous infusion, MI rats
[9] = losartan alone compared to control (DMSO)

Compound: C[C@H](CS)C(=O)N1CCC[C@H]1C(=O)O [Captopril, captopril, reference compound]
- contractility or ejection fraction ([1]; captopril alone, acute settings, heart failure rats in vivo): does not show a marked improvement

Compound: COc1cccc(OC)c1-n1c(NS(=O)(=O)[C@@H](C)[C@H](C)c2ncc(F)cn2)nnc1-c1ccc(C)o1 [Example 56.0, (2S,3R)—N-(4-(2,6-dimethoxyphenyl)-5-(5-methyl-2-furanyl)-4H-1,2,4-triazol-3-yl)-3-(5-fluoro-2-pyrimidinyl)-2-butanesulfonamide]
- heart rate ([1]; Example 56.0 alone or in combination with an ARB or ACE inhibitor, MI rats): did not significantly change
- dp/dtmax [1, 8]: increase
- ejection fraction [1, 8]: increase
- contractile function ([1]; plus losartan or captopril, over Example 56.0 therapy alone, MI rats): further augmented
- EC50 [2]: 0.071 nM
- inotropic effects ([3]; APJ agonist alone): dose-dependent increase
- Emax on co-infusion of AT1R blocker losartan ([3]; co-infusion of losartan): increased
- increase of potency on co-infusion of AT1R blocker losartan ([3]; co-infusion of losartan): 5 fold
- Isolated Heart Assay dP/dtmax (%) [4]: 23.0%
- Isolated Heart Assay dP/dtmin (%) [4]: 24.9%
- MI Rat Model dP/dtmax (%) [5]: 30%

Compound: COc1cccc(OC)c1-n1c(NS(=O)(=O)CCc2ccc(F)cc2C#N)nnc1-c1ccco1 [Example 210.0, 2-(2-Cyano-4-fluorophenyl)-N-(4-(2,6-dimethoxyphenyl)-5-(2-furanyl)-4H-1,2,4-triazol-3-yl)ethanesulfonamide]
- left ventricular dP/dtmax (cardiac contractility) [6]: increases load independent cardiac contractility
- left ventricular dP/dtmin (cardiac relaxation) [6]: increases load independent cardiac relaxation
- EC50 [2]: 3.2 nM
- Isolated Heart Assay dP/dtmax (%) [4]: 25.9%
- Isolated Heart Assay dP/dtmin (%) [4]: 34.0%
- MI Rat Model dP/dtmax (%) [5]: 95.6%

Compound: CCCCc1nc(Cl)c(CO)n1Cc1ccc(-c2ccccc2-c2nn[nH]n2)cc1 [losartan]
- left ventricular (LV) developed pressure (DevP) ([6]; compared with control (DMSO)): no impact on developed pressure
- left ventricular (LV) systolic pressure (Sys) ([6]; compared with control (DMSO)): no impact on systolic pressure
- left ventricular dP/dtmax (cardiac contractility) [6]: no impact on cardiac contraction
- left ventricular dP/dtmin (cardiac relaxation) [6]: no impact on cardiac relaxation
- cardiac contraction (dp/dtmax) [3, 9]: did not have any impact
- cardiac relaxation (dp/dtmin) [3, 9]: did not have any impact
- developed pressure (DevP) [3, 9]: did not have any impact
- systolic pressure (Sys) [3, 9]: did not have any impact

Compound: Apelin-36 (LVQPRGSRNGPGPWQGGRRKFRRQRPRLSHKGPMPF; Apelin-36; UniProt Q9ULZ1 42-77, looked up)
- in vitro activity (relative potency) [7]: approximately equipotent

Compound: apelin-17
- in vitro activity (relative potency) [7]: approximately equipotent
